The results in this text go back to paper PMC12399242 (Acta Pharmaceutica Sinica. B, 2025).

Molecules are shown by their SMILES.

Series [1] in a line: in vitro. The settings on record: human, CC50. An excerpt: (§1) Inspired by our previous research on heteroaromatic-biphenyl-DAPYs[15], the 4-cyanophenyl group on the biphenyl moiety was replaced with a privileged 4-pyridyl group for further evaluation.
For series [2], the system named is HIV-1 (IIIB). Briefly: microbe, parasite or virus in culture. Type of series: cell-based. The settings on record: for EC50: Human immunodeficiency virus 1, IIIB, MT4, WT HIV-1, protection of MT-4 cells against HIV-induced cytopathogenicity, mean ± SD, n ≥ 3; for SI (IIIB): selectivity index, ratio CC50/EC50.
Description: as §1
In general terms: Damage to the host cells serves as the signal in cytopathic effect assays.

As a reminder, the EC50 is the midpoint of the concentration-response curve. A low value points to higher potency in that assay.

On to `N#Cc1ccc(Nc2ncc(F)c(Oc3ccc(-c4ccc(C#N)cc4)cc3Cl)n2)cc1` [A2, 3′-Chloro-4′-((2-((4-cyanophenyl)amino)-5-fluoropyrimidin-4-yl)oxy)-[1,1′-biphenyl]-4-carbonitrile], for which the CC50 in series [1] was more than 45000 nM. Moreover, in series [2], the EC50 was 27 ± 25 nM and the “SI (IIIB)” value is listed as more than 1670.

For the compound `Cc1cc(-c2ccc(C#N)cc2)ccc1Oc1nc(Nc2ccc(C#N)cc2)ncc1F` [A3, 4′-((2-((4-Cyanophenyl)amino)-5-fluoropyrimidin-4-yl)oxy)-3′-methyl-[1,1′-biphenyl]-4-carbonitrile], in series [1], the CC50 was more than 48000 nM. Also, in series [2], the 50% effective concentration (EC50) was 7.6 ± 2.6 nM and the “SI (IIIB)” value is on record as more than 6349.

`N#Cc1ccc(Nc2ncc(F)c(Oc3c(F)cc(-c4ccc(C#N)cc4)cc3F)n2)cc1` [A5, 4′-((2-((4-Cyanophenyl)amino)-5-fluoropyrimidin-4-yl)oxy)-3′,5′-difluoro-[1,1′-biphenyl]-4-carbonitrile]: the CC50 in series [1] is more than 45000 nM. In addition, in series [2], a half-maximal effect (EC50) was put at 6.3 ± 3.2 nM and the “SI (IIIB)” value is on record as more than 7143.

For the compound `Cc1cc(-c2ccc(C#N)cc2)cc(C)c1Oc1nc(Nc2ccc(C#N)cc2)ncc1F` [A6, 4′-((2-((4-Cyanophenyl)amino)-5-fluoropyrimidin-4-yl)oxy)-3′,5′-dimethyl-[1,1′-biphenyl]-4-carbonitrile], the CC50 in series [1] was 219000 ± 12000 nM. Also, in series [2], the midpoint of the response, the EC50, lay at 7.1 ± 3.2 nM and the “SI (IIIB)” value is 30,805.

In series [1], `N#Cc1ccc(Nc2ncc(F)c(Nc3ccc(-c4ccc(C#N)cc4)cc3Cl)n2)cc1` [A8, 3′-Chloro-4′-((2-((4-cyanophenyl)amino)-5-fluoropyrimidin-4-yl)amino)-[1,1′-biphenyl]-4-carbonitrile] showed a CC50 of more than 45000 nM. For the same compound, in series [2], the EC50 was found to be 43 ± 23 nM and the “SI (IIIB)” value is recorded as more than 1038.

For `COc1cc(-c2ccc(C#N)cc2)ccc1Nc1nc(Nc2ccc(C#N)cc2)ncc1F` [A10, 4′-((2-((4-Cyanophenyl)amino)-5-fluoropyrimidin-4-yl)amino)-3′-methoxy-[1,1′-biphenyl]-4-carbonitrile], in series [1], the CC50 is more than 46000 nM. In series [2], the EC50 was determined as 23 ± 18 nM and the “SI (IIIB)” value is listed as more than 1961.

In series [1], `N#Cc1ccc(Nc2ncc(F)c(Oc3ccc(-c4ccncc4)cc3F)n2)cc1` [A13, 4-((5-Fluoro-4-(2-fluoro-4-(pyridin-4-yl)phenoxy)pyrimidin-2-yl)amino)benzonitrile] gave a CC50 of more than 50000 nM. In series [2], a half-maximal effect (EC50) was put at 9.7 ± 3.7 nM and the “SI (IIIB)” value is more than 5147.

The compound `N#Cc1ccc(Nc2ncc(F)c(Oc3ccc(-c4ccncc4)cc3Cl)n2)cc1` [A14, 4-((4-(2-Chloro-4-(pyridin-4-yl)phenoxy)-5-fluoropyrimidin-2-yl)amino)benzonitrile] came in with a CC50 in series [1] of more than 48000 nM. Further, in series [2], the EC50 came to 12 ± 3.1 nM and the “SI (IIIB)” value is on record as more than 3846.

`Cc1cc(-c2ccncc2)ccc1Oc1nc(Nc2ccc(C#N)cc2)ncc1F` [A15, 4-((5-Fluoro-4-(2-methyl-4-(pyridin-4-yl)phenoxy)pyrimidin-2-yl)amino)benzonitrile]: in series [1], the CC50 is more than 50000 nM. In series [2], the response was half-maximal at 11 ± 2.5 nM (EC50) and the “SI (IIIB)” value was more than 4734.

In series [1], `N#Cc1ccc(Nc2ncc(F)c(Oc3c(F)cc(-c4ccncc4)cc3F)n2)cc1` [A17, 4-((4-(2,6-Difluoro-4-(pyridin-4-yl)phenoxy)-5-fluoropyrimidin-2 yl)amino)benzonitrile] displayed a CC50 of more than 48000 nM. Also, in series [2], a half-maximal effect (EC50) was put at 11 ± 4.1 nM and the “SI (IIIB)” value is recorded as more than 4396.

Compound `Cc1cc(-c2ccncc2)cc(C)c1Oc1nc(Nc2ccc(C#N)cc2)ncc1F` [A18, 4-((4-(2,6-Dimethyl-4-(pyridin-4-yl)phenoxy)-5-fluoropyrimidin-2-yl)amino)benzonitrile] showed a CC50 in series [1] of more than 49000 nM. In series [2], the EC50 came to 56 ± 44 nM and the “SI (IIIB)” value was more than 868.

For the compound `N#Cc1ccc(Nc2ncc(F)c(Nc3ccc(-c4ccncc4)cc3F)n2)cc1` [A19, 4-((5-Fluoro-4-((2-fluoro-4-(pyridin-4-yl)phenyl)amino)pyrimidin-2-yl)amino)benzonitrile], the CC50 in series [1] was more than 50000 nM. Besides, in series [2], the EC50 turned out to be 18 ± 14 nM and the “SI (IIIB)” value was more than 2765.

In series [1], `N#Cc1ccc(Nc2ncc(F)c(Nc3ccc(-c4ccncc4)cc3Cl)n2)cc1` [A20, 4-((4-((2-Chloro-4-(pyridin-4-yl)phenyl)amino)-5-fluoropyrimidin-2-yl)amino)benzonitrile] returned a CC50 of more than 48000 nM. Also, in series [2], the response was half-maximal at 10 ± 1.7 nM (EC50) and the “SI (IIIB)” value is given as more than 4819.

Compound `Cc1cc(-c2ccncc2)ccc1Nc1nc(Nc2ccc(C#N)cc2)ncc1F` [A21, 4-((5-Fluoro-4-((2-methyl-4-(pyridin-4-yl)phenyl)amino)pyrimidin-2-yl)amino)benzonitrile] had a CC50 in series [1] of more than 51000 nM. Moreover, in series [2], the EC50 came out at 6.1 ± 1.3 nM and the “SI (IIIB)” value is reported as more than 8421.

Compound `COc1cc(-c2ccncc2)ccc1Nc1nc(Nc2ccc(C#N)cc2)ncc1F` [A22, 4-((5-Fluoro-4-((2-methoxy-4-(pyridin-4-yl)phenyl)amino)pyrimidin-2-yl)amino)benzonitrile] registered a CC50 in series [1] of more than 49000 nM. In series [2], a half-maximal response (EC50) required 8 ± 2.7 nM and the “SI (IIIB)” value is listed as more than 6154.

Consider `N#Cc1ccc(Nc2ncc(F)c(Nc3c(F)cc(-c4ccncc4)cc3F)n2)cc1` [A23, 4-((4-((2,6-Difluoro-4-(pyridin-4-yl)phenyl)amino)-5-fluoropyrimidin-2-yl)amino)benzonitrile], for which the CC50 in series [1] amounted to 21000 ± 18000 nM. For the same compound, in series [2], the response was half-maximal at 7.6 ± 1.2 nM (EC50).

In series [1], `N#Cc1ccc(Nc2ncc(Cl)c(Oc3ccc(-c4ccc(C#N)cc4)cc3F)n2)cc1` [B1, 4′-((5-Chloro-2-((4-cyanophenyl)amino)pyrimidin-4-yl)oxy)-3′-fluoro-[1,1′-biphenyl]-4-carbonitrile] yielded a CC50 of 39000 ± 12000 nM. In series [2], the EC50 came out at 8.4 ± 3.4 nM and the “SI (IIIB)” value was found to be 4572.

Regarding `N#Cc1ccc(Nc2ncc(Cl)c(Oc3ccc(-c4ccc(C#N)cc4)cc3Cl)n2)cc1` [B2, 3′-Chloro-4′-((5-chloro-2-((4-cyanophenyl)amino)pyrimidin-4-yl)oxy)-[1,1′-biphenyl]-4-carbonitrile], the CC50 in series [1] is 35000 ± 7300 nM. Further, in series [2], it took 8.7 ± 2 nM to reach a half-maximal effect (EC50) and the “SI (IIIB)” value is recorded as 3949.

On to `Cc1cc(-c2ccc(C#N)cc2)ccc1Oc1nc(Nc2ccc(C#N)cc2)ncc1Cl` [B3, 4′-((5-Chloro-2-((4-cyanophenyl)amino)pyrimidin-4-yl)oxy)-3′-methyl-[1,1′-biphenyl]-4-carbonitrile], for which, in series [1], the CC50 is more than 46000 nM. Moreover, in series [2], a half-maximal effect (EC50) was put at 7.1 ± 1.6 nM and the “SI (IIIB)” value is recorded as more than 6542.

In series [1], `COc1cc(-c2ccc(C#N)cc2)ccc1Oc1nc(Nc2ccc(C#N)cc2)ncc1Cl` [B4, 4′-((5-Chloro-2-((4-cyanophenyl)amino)pyrimidin-4-yl)oxy)-3′-methoxy-[1,1′-biphenyl]-4-carbonitrile] registered a CC50 of 11000 ± 3700 nM. Further, in series [2], a half-maximal effect (EC50) was put at 26 ± 13 nM and the “SI (IIIB)” value was 412.

Turning to `Cc1cc(-c2ccc(C#N)cc2)cc(C)c1Oc1nc(Nc2ccc(C#N)cc2)ncc1Cl` [B5, 4′-((5-Chloro-2-((4-cyanophenyl)amino)pyrimidin-4-yl)oxy)-3′,5′-dimethyl-[1,1′-biphenyl]-4-carbonitrile], in series [1], the CC50 amounted to 39000 ± 9100 nM. In series [2], the response was half-maximal at 11 ± 4.2 nM (EC50) and the “SI (IIIB)” value worked out at 3478.
